Entries after “also recorded” stand apart in the source; their conditions may differ.
Legend:
Assay type in all cases: in vivo
C57B/6 male mice [1] = test: Amphetamine-induced stereotypy (open field locomotion); conditions: for AMBULATIONS / FINE MOVEMENTS: 30 μg/kg PO, amphetamine 8 mg/kg; for FINE MOVEMENTS: scored 60 min post-amphetamine
Method: C57B/6 male mice were placed in an open field apparatus and allowed to habituate for 15-30 minutes. The compound of the invention (at 30 μg/kg) was administered PO at 0, +15, or +30 minutes relative to amphetamine (8 mg/kg) administration, and locomotor behavior was scored for an additional 60 minutes post-amphetamine. Amphetamine was administered IP. Locomotion was separated into “fine movements” (indicative of stereotypy) and “ambulations” (indicative of hyperactivity). Amphetamine induced stereotypy. […] Locomotion was separated into “fine movements” (indicative of stereotypy) and “ambulations” (indicative of hyperactivity). Prepulse inhibition. Sprague Dawley male rats (˜200 g-300 g) were used (n=8/group). […] Each rat was individually placed in the startle chamber 10 minutes post-phencyclidine or post-amphetamine or post-vehicle. Testing was carried out using the SR-Lab Startle Response system by San Diego Instruments. Each rat was allowed to acclimate for a 5 minute period with a 65-dB background noise continuously present throughout the session. […] A sensor in the chamber recorded the startle responses following all stimuli presented.

C57B/6 male mice [2] = test: as above; conditions: 30 μg/kg PO, time post-amphetamine −15 min, amphetamine 8 mg/kg
Male Sprague-Dawley rats = test: Pre-pulse inhibition of the startle response (PPI) disrupted by psychostimulants
Method: Male Sprague-Dawley rats were treated with Drug 1 (IP) followed 20 minutes later by Drug 2 (IP or SC as indicated in the methods). Ten minutes following administration of Drug 2 (except in the case of apomorphine where animals were immediately tested post-apomorphine), rats were placed in the startle chamber and allowed 5 minutes to acclimate with 65-dB background white noise. The acclimation period was followed by a ˜15 minute test session during which time rats were presented with 40 ms 120 dB startle pulses alone or preceded 100 ms by a pre-pulse 3, 6, or 12 dB above background. These four types of active stimuli were presented in pseudorandom order along with no-stimulation trials to assess baseline activity throughout testing. An average of 20 s separated each trial type. The maximum startle magnitude was measured for every trial type. PPI for each animal was calculated as the percentage startle magnitude to the pre-pulse+pulse or no-stimulation trials relative to the pulse-alone startle magnitude. Amphetamine induced stereotypy. […] Locomotion was separated into “fine movements” (indicative of stereotypy) and “ambulations” (indicative of hyperactivity). Prepulse inhibition. […] Each rat was individually placed in the startle chamber 10 minutes post-phencyclidine or post-amphetamine or post-vehicle. Testing was carried out using the SR-Lab Startle Response system by San Diego Instruments. Each rat was allowed to acclimate for a 5 minute period with a 65-dB background noise continuously present throughout the session. […] A sensor in the chamber recorded the startle responses following all stimuli presented.

**Q.** Cc1cccc(C(C)c2c[nH]c(=S)[nH]2)c1C (stereo not shown) [AGN-203818, 4-(1-(2,3-dimethylphenyl)ethyl)-1H-imidazole-2(3H)-thione] was tested. Which AMBULATIONS (C57B/6 male mice [1]; time post-amphetamine 0 min) did it give?
**A.** Its AMBULATIONS is 7337 ± 890.0.

**Q.** And the “FINE MOVEMENTS” value (C57B/6 male mice [1]; time post-amphetamine 0 min)?
**A.** The value was 762.2 ± 89.4^⋄.

**Q.** What about the AMBULATIONS (C57B/6 male mice [1]; time post-amphetamine 15 min) of the same molecule?
**A.** Its AMBULATIONS is 5747.3 ± 874.4.

**Q.** And the “FINE MOVEMENTS” value (C57B/6 male mice [1]; time post-amphetamine 15 min)?
**A.** The value was 1066.5 ± 37.8^⋄.

**Q.** What about the AMBULATIONS (C57B/6 male mice [1]; time post-amphetamine 30 min) of the same molecule?
**A.** Its AMBULATIONS is 7201.2 ± 1669.4.

**Q.** And the “FINE MOVEMENTS” value (C57B/6 male mice [1]; time post-amphetamine 30 min)?
**A.** The value was 1297.8 ± 85.3^⋄.

**Q.** And the “oral activity (in words)” value (C57B/6 male mice [1]; administered PO)?
**A.** Its value is “orally active”.

**Q.** What about the “effect on amphetamine-induced stereotypy (in words)” value (C57B/6 male mice [1]; high-dose psychostimulant administration, listed as compound of the invention) of the same molecule?
**A.** Its value is “effectively inhibit stereotypy; also recorded: selectively decreased amphetamine-induced stereotypy”.

**Q.** And the AMBULATIONS (C57B/6 male mice [2]; ambulations indicative of hyperactivity)?
**A.** Its AMBULATIONS is 4756.3 ± 1208.8.

**Q.** What about the “FINE MOVEMENTS” value (C57B/6 male mice [2]; scored 60 min post-amphetamine, fine movements indicative of stereotypy) of the same molecule?
**A.** Its value is 904.5 ± 107.0^⋄.

**Q.** What about the “% PPI PP3” value (Male Sprague-Dawley rats; Compound 0.01 mg/kg as Drug 1, Drug 2 PCP (2 mg/kg, s.c.), pre-pulse 3 dB) of the same molecule?
**A.** Its value is 20.3 ± 10.6%.

**Q.** And the “% PPI PP6” value (Male Sprague-Dawley rats; Compound 0.01 mg/kg as Drug 1, Drug 2 PCP (2 mg/kg, s.c.), pre-pulse 6 dB)?
**A.** Its value is 21.6 ± 10.7%.

**Q.** What about the “% PPI PP12” value (Male Sprague-Dawley rats; Compound 0.01 mg/kg as Drug 1, Drug 2 PCP (2 mg/kg, s.c.), pre-pulse 12 dB) of the same molecule?
**A.** The value was 51.8 ± 5.6%.

**Q.** And the “% PPI PP3” value (Male Sprague-Dawley rats; Compound 0.03 mg/kg as Drug 1, Drug 2 PCP (2 mg/kg, s.c.), pre-pulse 3 dB)?
**A.** The value was 30.9 ± 7.4%.

**Q.** What about the “% PPI PP6” value (Male Sprague-Dawley rats; Compound 0.03 mg/kg as Drug 1, Drug 2 PCP (2 mg/kg, s.c.), pre-pulse 6 dB) of the same molecule?
**A.** The value was 46.2 ± 4.2%^⋄.

**Q.** And the “% PPI PP12” value (Male Sprague-Dawley rats; Compound 0.03 mg/kg as Drug 1, Drug 2 PCP (2 mg/kg, s.c.), pre-pulse 12 dB)?
**A.** The value was 53.6 ± 4.2%.

**Q.** And the “% PPI PP3” value (Male Sprague-Dawley rats; Compound 0.1 mg/kg as Drug 1, Drug 2 PCP (2 mg/kg, s.c.), pre-pulse 3 dB)?
**A.** The value was 35.8 ± 7.0%.

**Q.** What about the “% PPI PP6” value (Male Sprague-Dawley rats; Compound 0.1 mg/kg as Drug 1, Drug 2 PCP (2 mg/kg, s.c.), pre-pulse 6 dB) of the same molecule?
**A.** Its value is 39.6 ± 10.7%.

**Q.** And the “% PPI PP12” value (Male Sprague-Dawley rats; Compound 0.1 mg/kg as Drug 1, Drug 2 PCP (2 mg/kg, s.c.), pre-pulse 12 dB)?
**A.** Its value is 56.2 ± 5.6%^⋄.

**Q.** What about the “% PPI PP3” value (Male Sprague-Dawley rats; Compound 1 mg/kg as Drug 1, Drug 2 Amphetamine (4 mg/kg, s.c.), pre-pulse 3 dB) of the same molecule?
**A.** Its value is 49.6 ± 5.8%^⋄.

**Q.** What about the “% PPI PP6” value (Male Sprague-Dawley rats; Compound 1 mg/kg as Drug 1, Drug 2 Amphetamine (4 mg/kg, s.c.), pre-pulse 6 dB) of the same molecule?
**A.** Its value is 52.9 ± 4.3%^⋄.

**Q.** And the “% PPI PP12” value (Male Sprague-Dawley rats; Compound 1 mg/kg as Drug 1, Drug 2 Amphetamine (4 mg/kg, s.c.), pre-pulse 12 dB)?
**A.** The value was 65.7 ± 4.7%^⋄.

**Q.** What about the “% PPI PP3” value (Male Sprague-Dawley rats; Compound 1 mg/kg as Drug 1, Drug 2 PCP (2 mg/kg, s.c.), pre-pulse 3 dB) of the same molecule?
**A.** The value was 48.8 ± 8.2%^⋄.

**Q.** What about the “% PPI PP6” value (Male Sprague-Dawley rats; Compound 1 mg/kg as Drug 1, Drug 2 PCP (2 mg/kg, s.c.), pre-pulse 6 dB) of the same molecule?
**A.** Its value is 45.0 ± 12.7%.

**Q.** What about the “% PPI PP3” value (Male Sprague-Dawley rats; Compound as Drug 1 (dose not given), Drug 2 Vehicle, pre-pulse 3 dB) of the same molecule?
**A.** Its value is 60.4 ± 4.8%^⋄.

**Q.** What about the “% PPI PP6” value (Male Sprague-Dawley rats; Compound as Drug 1 (dose not given), Drug 2 Vehicle, pre-pulse 6 dB) of the same molecule?
**A.** The value was 59.8 ± 2.2%^⋄.

**Q.** What about the “% PPI PP12” value (Male Sprague-Dawley rats; Compound as Drug 1 (dose not given), Drug 2 Vehicle, pre-pulse 12 dB) of the same molecule?
**A.** Its value is 75.5 ± 2.9%^⋄*.

**Q.** And the “effect on PPI deficits induced by amphetamine or phencyclidine (in words)” value (Male Sprague-Dawley rats; deficits induced by amphetamine or phencyclidine)?
**A.** The value was “significantly rescue deficits in sensorimotor integration”.

**Q.** How did the “% PPI PP3” value (Male Sprague-Dawley rats; Clonidine 30 ug/kg as Drug 1, Drug 2 Amphetamine (4 mg/kg, s.c.), pre-pulse 3 dB) turn out when Clc1cccc(Cl)c1N=C1NCCN1 [Clonidine, reference compound] was run?
**A.** Its value is 31.0 ± 6.9%.

**Q.** And the “% PPI PP6” value (Male Sprague-Dawley rats; Clonidine 30 ug/kg as Drug 1, Drug 2 Amphetamine (4 mg/kg, s.c.), pre-pulse 6 dB)?
**A.** Its value is 40.7 ± 6.0%.

**Q.** And the “% PPI PP12” value (Male Sprague-Dawley rats; Clonidine 30 ug/kg as Drug 1, Drug 2 Amphetamine (4 mg/kg, s.c.), pre-pulse 12 dB)?
**A.** Its value is 53.5 ± 5.2%.

**Q.** And the “% PPI PP3” value (Male Sprague-Dawley rats; Clonidine 30 ug/kg as Drug 1, Drug 2 PCP (2 mg/kg, s.c.), pre-pulse 3 dB)?
**A.** Its value is 34.5 ± 8.2%.

**Q.** What about the “% PPI PP6” value (Male Sprague-Dawley rats; Clonidine 30 ug/kg as Drug 1, Drug 2 PCP (2 mg/kg, s.c.), pre-pulse 6 dB) of the same molecule?
**A.** The value was 55.1 ± 9.8%.

**Q.** What about the “% PPI PP12” value (Male Sprague-Dawley rats; Clonidine 30 ug/kg as Drug 1, Drug 2 PCP (2 mg/kg, s.c.), pre-pulse 12 dB) of the same molecule?
**A.** The value was 63.7 ± 7.4%.

**Q.** What about the “% PPI PP3” value (Male Sprague-Dawley rats; Clonidine 30 ug/kg as Drug 1, Drug 2 Vehicle, pre-pulse 3 dB above background) of the same molecule?
**A.** The value was 35.2 ± 15.7%.

**Q.** And the “% PPI PP6” value (Male Sprague-Dawley rats; Clonidine 30 ug/kg as Drug 1, Drug 2 Vehicle, pre-pulse 6 dB above background)?
**A.** Its value is 60.8 ± 3.0%^⋄.

**Q.** What about the “% PPI PP12” value (Male Sprague-Dawley rats; Clonidine 30 ug/kg as Drug 1, Drug 2 Vehicle, pre-pulse 12 dB above background) of the same molecule?
**A.** The value was 54.7 ± 8.0%.

Source: US20110269805A1, “METHOD OF TREATING SENSORIMOTOR DISORDERS WITH 4-(1-(2,3-DIMETHYLPHENYL)ETHYL)-1H-IMIDAZOLE-2(3H)-THIONE” (priority 2007, published 2011)
